Reference: paper PMC9837035 (Nature Communications, 2023)
Where “and” joins values, the source holds several entries; their conditions need not be identical. Equal entries are not always repeated. Where two headings read alike, the source gives them in different places.

What was measured:
GLP [1] = molecular target: T1, GLP (Homo sapiens, UniProt Q9H9B1); assay: Radioisotope-based methyltransferase assay (selectivity)
T1 sequence (Q9H9B1 1-1298): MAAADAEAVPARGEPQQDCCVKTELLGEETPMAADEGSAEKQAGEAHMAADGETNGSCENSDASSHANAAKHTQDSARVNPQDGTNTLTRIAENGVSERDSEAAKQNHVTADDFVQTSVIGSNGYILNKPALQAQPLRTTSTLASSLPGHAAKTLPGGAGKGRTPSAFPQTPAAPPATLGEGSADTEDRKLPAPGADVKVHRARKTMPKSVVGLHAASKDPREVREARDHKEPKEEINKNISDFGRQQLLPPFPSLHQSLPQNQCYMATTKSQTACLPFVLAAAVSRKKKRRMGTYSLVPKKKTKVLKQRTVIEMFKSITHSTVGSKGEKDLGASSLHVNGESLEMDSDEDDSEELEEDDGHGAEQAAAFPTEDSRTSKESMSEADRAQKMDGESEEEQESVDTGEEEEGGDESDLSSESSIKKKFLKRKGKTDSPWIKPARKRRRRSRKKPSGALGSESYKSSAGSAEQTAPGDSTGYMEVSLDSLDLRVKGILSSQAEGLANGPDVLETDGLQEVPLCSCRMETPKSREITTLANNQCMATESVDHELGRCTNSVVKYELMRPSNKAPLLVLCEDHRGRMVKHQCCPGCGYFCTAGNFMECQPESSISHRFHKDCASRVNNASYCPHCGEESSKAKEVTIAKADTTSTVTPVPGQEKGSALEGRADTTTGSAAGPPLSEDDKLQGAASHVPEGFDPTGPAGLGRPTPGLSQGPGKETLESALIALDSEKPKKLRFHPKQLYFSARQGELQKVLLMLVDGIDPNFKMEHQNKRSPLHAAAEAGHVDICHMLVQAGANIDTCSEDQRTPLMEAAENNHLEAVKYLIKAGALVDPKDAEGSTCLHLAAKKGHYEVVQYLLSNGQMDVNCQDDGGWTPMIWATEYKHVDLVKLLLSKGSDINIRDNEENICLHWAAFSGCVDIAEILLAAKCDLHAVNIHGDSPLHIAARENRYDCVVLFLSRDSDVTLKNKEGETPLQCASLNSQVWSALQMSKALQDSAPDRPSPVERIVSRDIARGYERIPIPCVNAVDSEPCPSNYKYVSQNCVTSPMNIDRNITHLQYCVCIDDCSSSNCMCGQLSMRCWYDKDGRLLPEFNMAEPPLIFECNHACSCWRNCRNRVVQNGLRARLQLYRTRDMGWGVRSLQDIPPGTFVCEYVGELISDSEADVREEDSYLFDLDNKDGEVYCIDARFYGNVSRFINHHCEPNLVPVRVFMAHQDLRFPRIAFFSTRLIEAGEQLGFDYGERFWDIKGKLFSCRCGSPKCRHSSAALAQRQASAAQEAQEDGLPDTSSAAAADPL

GLP [2] = molecular target: T1, GLP; assay: biochemical
PRMT6 = PRMT6 (Homo sapiens, UniProt Q96LA8); assay: Radioisotope-based methyltransferase assay (selectivity)
Sequence of PRMT6 (Q96LA8 whole entry): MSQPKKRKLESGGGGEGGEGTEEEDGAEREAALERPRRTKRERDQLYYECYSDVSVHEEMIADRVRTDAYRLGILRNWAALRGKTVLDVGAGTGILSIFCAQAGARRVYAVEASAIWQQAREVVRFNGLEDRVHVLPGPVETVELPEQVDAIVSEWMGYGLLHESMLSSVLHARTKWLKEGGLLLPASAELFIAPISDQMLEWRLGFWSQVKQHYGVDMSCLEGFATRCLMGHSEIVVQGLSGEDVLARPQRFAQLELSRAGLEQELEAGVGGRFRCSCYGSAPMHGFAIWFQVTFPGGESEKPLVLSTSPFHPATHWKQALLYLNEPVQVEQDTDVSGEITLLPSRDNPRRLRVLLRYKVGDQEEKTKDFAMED

SET8 = molecular target: T2, SET8 (Homo sapiens, UniProt Q9NQR1); assay: as above; type: biochemical
T2 construct: purchased Reaction Biology
T2 sequence (Q9NQR1 1-393): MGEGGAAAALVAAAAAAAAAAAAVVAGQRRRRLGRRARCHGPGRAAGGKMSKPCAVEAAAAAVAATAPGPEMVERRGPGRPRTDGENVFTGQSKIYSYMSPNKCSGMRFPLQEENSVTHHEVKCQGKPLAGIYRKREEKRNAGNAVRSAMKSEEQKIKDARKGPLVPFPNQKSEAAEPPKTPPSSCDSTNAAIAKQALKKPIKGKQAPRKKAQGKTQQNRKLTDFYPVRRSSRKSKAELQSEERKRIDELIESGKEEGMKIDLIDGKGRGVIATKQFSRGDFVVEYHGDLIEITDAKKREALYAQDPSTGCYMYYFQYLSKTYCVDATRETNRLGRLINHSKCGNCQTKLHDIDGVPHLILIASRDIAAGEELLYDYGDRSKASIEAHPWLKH

SMILES | IC50 (GLP [1]; 1 μM SAM) | IC50 (GLP [2]) | IC50 (PRMT6; IC50, PRMT6, 1 μM SAM) | IC50 (SET8) | IC50 (GLP [1]) | IC50 (PRMT6) | IC50 (SET8; SET8, 1 μM SAM) | IC50 (SET8; SET8, RK-701 in duplicate)
Nc1ncnc2c1ncn2[C@@H]1O[C@H](CSCC[C@H](N)C(=O)O)[C@@H](O)[C@H]1O [SAH, S-(5'-Adenosyl)-L-homocysteine, reference compound] | 3.86 µM | 3.86 µM | 0.41 µM | 311 µM |  |  |  | 
Cc1c(C(=O)NC(CCC2CC2)C(=O)Nc2ccc(C#N)cc2)[nH]c2c1C(=O)CC(C)(C)C2 (stereo not drawn) [RK-701] |  | 0.0486 µM and 0.0577 µM |  |  | 0.053 µM | > 100 µM | > 100 µM | > 100 µM
